Assay results: patent publication US20250109119A1, “AMPK AGONISTS AND METHODS OF USE THEREOF” (Evvia Therapeutics, Inc., priority 2023, published 2025)

Tested on: AMPK
Assay: EC50 data of compounds of the disclosure (Table A; AMPK agonists)
Format: biochemical
Conditions: Table A '>10 μM'; cells list compound numbers

Row | SMILES | EC50 [µM]
1 | CONC(=O)c1c[nH]c2cc(Cl)c(-c3ccc(N4CCC(C)CC4)nc3OC)cc12 [compound 1049] | > 10
2 | CCN(CC)c1ccc(-c2cc3c(C(=O)NOC)c[nH]c3cc2Cl)c(OC)n1 [compound 1074] | > 10
3 | CONS(=O)(=O)c1c[nH]c2cc(Cl)c(-c3ccc(C4CCCCO4)cc3)cc12 (stereo not shown) [compound 1109, 6-chloro-N-methoxy-5-(4-(tetrahydro-2H-pyran-2-yl)phenyl)-1H-indole-3-sulfonamide] | > 10
4 | CONC(=O)c1c[nH]c2cc(Cl)c(-c3ccc(N(C)CCCN(C)C)nc3OC)cc12 [compound 1064] | > 10
5 | CONC(=O)c1c[nH]c2cc(Cl)c(-c3ccc(N(C)CCOC(C)C)nc3OC)cc12 [compound 1052] | > 10
6 | COc1nc(N(C)C)ccc1-c1cc2c(C(=O)NOc3ccccc3)c[nH]c2cc1Cl [compound 1012, 6-chloro-5-(6-(dimethylamino)-2-methoxypyridin-3-yl)-N-phenoxy-1H-indole-3-carboxamide] | > 10
7 | CONC(=O)c1c[nH]c2cc(Cl)c(-c3ccc(N(C)C)nc3C(F)(F)F)cc12 [compound 1021, 6-chloro-5-(6-(dimethylamino)-2-(trifluoromethyl)pyridin-3-yl)-N-methoxy-1H-indole-3-carboxamide] | > 10
8 | CONC(=O)c1c[nH]c2cc(Cl)c(-c3ccc(N(C)CC4CCC4)nc3OC)cc12 [compound 1054] | > 10
9 | CONS(=O)(=O)c1c[nH]c2cc(Cl)c(-c3ccc(-c4ccccc4)cc3)cc12 [compound 1110, 5-([1,1′-biphenyl]-4-yl)-6-chloro-N-methoxy-1H-indole-3-sulfonamide] | > 10
10 | COCCN(C)c1ccc(-c2cc3c(C(=O)NOC)c[nH]c3cc2Cl)c(OC)n1 [compound 1051] | > 10
11 | COc1nc(N(C)C)ccc1-c1cc2c(C(=O)NOCCN(C)C)c[nH]c2cc1Cl [compound 1060] | > 10
12 | CCc1cc(N(C)C)ccc1-c1cc2c(C(=O)NOC)c[nH]c2cc1Cl [compound 1100] | > 10
13 | CONS(=O)(=O)c1c[nH]c2cc(Cl)c(-c3ccc(N(C)C)nc3OC)cc12 [compound 1028, 6-chloro-5-(6-(dimethylamino)-2-methoxypyridin-3-yl)-N-methoxy-1H-indole-3-sulfonamide] | > 10
14 | CONC(=O)c1c[nH]c2cc(Cl)c(-c3ccc(N4CCC(F)(F)CC4)nc3OC)cc12 [compound 1058] | > 10
15 | CCONC(=O)c1c[nH]c2cc(Cl)c(-c3ccc(N(C)C)nc3OC)nc12 [compound 1090] | > 10

Results, then the compound that gave them:

Row | EC50 [µM] | SMILES
16 | > 10 | CCONC(=O)c1c[nH]c2cc(Cl)c(-c3ccc(C4(O)CCC4)nc3)cc12 [compound 1099]
17 | > 10 | CCOc1nc(N(C)C)ccc1-c1cc2c(C(=O)NOC)c[nH]c2cc1Cl [compound 1020, 6-chloro-5-(6-(dimethylamino)-2-ethoxypyridin-3-yl)-N-methoxy-1H-indole-3-carboxamide]
18 | > 10 | CONC(=O)c1c[nH]c2cc(Cl)c(-c3ccc(N4CC5(CCC5)C4)nc3OC)cc12 [compound 1050]
19 | > 10 | CCONC(=O)c1c[nH]c2cc(Cl)c(-c3ccc(C#N)cc3OC)cc12 [compound 1097]
20 | > 10 | CONC(=O)c1c[nH]c2cc(Cl)c(-c3ccc(N(C)C)nc3O)cc12 [compound 1041]
21 | > 10 | CCONC(=O)c1c[nH]c2cc(Cl)c(-c3ccc(C4(CO)CC4)nc3)cc12 [compound 1101]
22 | > 10 | CCONC(=O)c1c[nH]c2cc(Cl)c(-c3ccc(N(CC)CC)nc3OC)cc12 [compound 1075]

Same assay, conditions: Table A column head '<100 nM'; cells list compound numbers

Row | EC50 [µM] | SMILES
23 | < 0.1 | CONC(=O)c1c[nH]c2cc(Cl)c(-c3ccc(N(C)C)nc3OC)cc12 [compound 1003, 6-chloro-5-(6-(dimethylamino)-2-methoxypyridin-3-yl)-N-methoxy-1H-indole-3-carboxamide]
24 | < 0.1 | CONC(=O)c1c[nH]c2cc(F)c(-c3ccc(C4CCCCO4)cc3)c(F)c12 (stereo not shown) [compound 1007, 4,6-difluoro-N-methoxy-5-(4-(tetrahydro-2H-pyran-2-yl)phenyl)-1H-indole-3-carboxamide]

Tested on: not listed separately
Assay: Blood Brain Barrier (BBB) data, brain/plasma ratio (Table B)
Format: in vivo
Conditions: brain and plasma; calculated at a 3 hr time point; Table B column heads <0.1, 0.1-1, >1; cells list compound numbers
Experimental: Blood Brain Barrier (BBB) data was evaluated for compounds of the disclosure and the values are shown in Table B. Brain/plasma ratio was calculated at a 3 hr time point).

Row | SMILES | Kp at 3 h
25 | OCC1(c2ccc(-c3cc4c(-c5nnn[nH]5)c[nH]c4cc3Cl)s2)CC1 [compound 1084] | < 0.1
26 | CS(=O)(=O)NC(=O)c1c[nH]c2cc(Cl)c(-c3ccc(-c4ccccc4)cc3)cc12 [compound 1112] | < 0.1
27 | CONC(=O)C(=O)c1c[nH]c2cc(Cl)c(-c3ccc(N(C)C)nc3OC)cc12 [compound 1077, 2-(6-chloro-5-(6-(dimethylamino)-2-methoxypyridin-3-yl)-1H-indol-3-yl)-N-methoxy-2-oxoacetamide] | < 0.1
28 | CONC(=O)c1c[nH]c2cc(Cl)c(-c3ccc(N(C)C)nc3OC)cc12 [compound 1003, 6-chloro-5-(6-(dimethylamino)-2-methoxypyridin-3-yl)-N-methoxy-1H-indole-3-carboxamide] | > 1
29 | COc1nc(N(C)C)ccc1-c1cc2c(C(=O)NO)c[nH]c2cc1Cl [compound 1001, 6-chloro-5-(6-(dimethylamino)-2-methoxypyridin-3-yl)-N-hydroxy-1H-indole-3-carboxamide] | < 0.1

Continued, values first:

Row | Kp at 3 h | SMILES
30 | < 0.1 | COCCONC(=O)c1c[nH]c2cc(Cl)c(-c3ccc(C4(O)CCC4)cc3)cc12 [compound 1045]
31 | < 0.1 | CCONC(=O)C(=O)c1c[nH]c2cc(Cl)c(-c3ccc(N(C)C)nc3OC)cc12 [compound 1081]
32 | 0.1 to 1 | COc1nc(N(C)C)ccc1-c1cc2c(C(=O)NOCC3CC3)c[nH]c2cc1Cl [compound 1015, 6-chloro-N-(cyclopropylmethoxy)-5-(6-(dimethylamino)-2-methoxypyridin-3-yl)-1H-indole-3-carboxamide]
33 | 0.1 to 1 | COCCONC(=O)c1c[nH]c2cc(Cl)c(-c3ccc(N(C)C)nc3OC)cc12 [compound 1011, 6-chloro-5-(6-(dimethylamino)-2-methoxypyridin-3-yl)-N-(2-methoxyethoxy)-1H-indole-3-carboxamide]
34 | 0.1 to 1 | CCONC(=O)c1c[nH]c2cc(Cl)c(-c3ccc(N(C)C)nc3OC)cc12 [compound 1009, 6-chloro-5-(6-(dimethylamino)-2-methoxypyridin-3-yl)-N-ethoxy-1H-indole-3-carboxamide]
